Where a name gives a salt, the structure may show the parent alone.
Test system: Rat Defecation Models Induced by Restraint Stress
Assay: Rat defecation models induced by restraint stress (number of feces within 60 minutes)
Assay type: in vivo
From the text: The fact that the morphinan derivatives having the nitrogen-containing cyclic substituent, represented by Formula (I) and the pharmaceutically acceptable acid addition salts thereof are effective for functional bowel disorders may be confirmed by showing inhibitory action against transportation ability of large intestine, which ability has been increased by applying restraint stress. The inhibitory action against the increased transportation ability of large intestine may be confirmed by a reported method (Miyata K et. al., J. Pharmacol. Exp. Ther., 261, 297-303, 1992. or Kobayashi S et. al., Jpn. J. Pharmacol., 86, 281-8, 2001.), but the method is not restricted thereto.
A solvent or the Compound 1 was subcutaneously administered, and 15 minutes later, application of restraint stress was started. The number of feces within 60 minutes from the beginning of the application of the stress was counted and the effect was evaluated (one group consisted of 6 rats). The rats in a control group to which the restraint stress was not applied were merely moved to a new plastic cage.
In the group to which 5 w/v % xylitol solution containing 0.1 w/v % citric acid used as the solvent alone was administered, the rats to which the restraint stress was not applied defecated 1.0 feces on average within the 60 minutes, while the rats to which the restraint stress was applied defecated 6.5 feces on average, so that increase in the number of feces caused by the stress was observed.
Compounds 10, 11, 12 and 13 were evaluated in the same manner as in Example 1. In the group to which 5 w/v % xylitol solution containing 0.1 w/v % citric acid used as the solvent alone was administered, the rats to which the restraint stress was applied defecated 7.5 feces on average within the 60 minutes. The number of feces was decreased to 0.3 on average when 0.3 mg/kg of Compound 10 was administered, decreased to 4.2 on average when 1 mg/kg of Compound 11 was administered, decreased to 3.7 on average when 0.3 mg/kg of Compound 12 was administered, and decreased to 4.1 on average when 10 mg/kg of Compound 13 was administered.

[1] = 0.3 mg/kg subcutaneous 15 minutes before restraint stress, solvent group with stress 7.5

O=C1C=CC(=O)N1[C@@H]1CC[C@@]2(O)[C@H]3Cc4ccc(O)c5c4[C@@]2(CCN3CC2CC2)[C@H]1O5 [Compound 13, N-(17-cyclopropylmethyl-4,5α-epoxy-3,14-dihydroxy-morphinan-6β-yl)-maleimide•tartaric Acid Salt]
number of feces on average within 60 minutes from the beginning of restraint stress (10 mg/kg subcutaneous 15 minutes before restraint stress, solvent group with stress 7.5): 4.1

O=C1c2cccc(F)c2CN1[C@@H]1CC[C@@]2(O)[C@H]3Cc4ccc(O)c5c4[C@@]2(CCN3CC2CC2)[C@H]1O5 [Compound 11, 2-(17-cyclopropylmethyl-4,5α-epoxy-3,14-dihydroxy-morphinan-6β-yl)-4-fluoro-2,3-dihydro-isoindole-1-one-methanesulfonic Acid Salt]
number of feces on average within 60 minutes from the beginning of restraint stress (1 mg/kg subcutaneous 15 minutes before restraint stress, solvent group with stress 7.5): 4.2

O=C1c2ccccc2C(=O)N1[C@@H]1CC[C@@]2(O)[C@H]3Cc4ccc(O)c5c4[C@@]2(CCN3CC2CC2)[C@H]1O5 [Compound 1, N-(17-cyclopropylmethyl-4,5α-epoxy-3,14-dihydroxy-morphinan-6β-yl)-phthalimide]
number of feces on average within 60 minutes from the beginning of restraint stress (0.15 mg/kg subcutaneous 15 minutes before restraint stress, solvent group with stress 6.5, without stress 1.0): 1.0
activity to reduce the number of feces with respect to the solvent group (0.15 mg/kg subcutaneous, restraint stress, result in words): statistically significant activity to reduce the number of feces was observed

O=C1c2ccccc2S(=O)(=O)N1[C@@H]1CC[C@@]2(O)[C@H]3Cc4ccc(O)c5c4[C@@]2(CCN3CC2CC2)[C@H]1O5 [Compound 12, N-(17-cyclopropylmethyl-4,5α-epoxy-3,14-dihydroxy-morphinan-6β-yl)-O-sulfonbenzimide•tartaric Acid Salt]
number of feces on average within 60 minutes from the beginning of restraint stress [1]: 3.7

O=C1C2=C(CCCC2)C(=O)N1[C@@H]1CC[C@@]2(O)[C@H]3Cc4ccc(O)c5c4[C@@]2(CCN3CC2CC2)[C@H]1O5 [Compound 10, N-(17-cyclopropylmethyl-4,5α-epoxy-3,14-dihydroxy-morphinan-6β-yl)-3,4,5,6-tetrahydrophthalimide•tartaric Acid Salt]
number of feces on average within 60 minutes from the beginning of restraint stress [1]: 0.3

From patent US8058286B2, “Method for therapy of diarrhea-predominant irritable bowel disorders” (Toray Industries, Inc., priority 2005, dated 2011)
